# Assays:
# Experiment in all cases: Test B pre-/postemergence
# Type in all cases: in vivo
# Set-up in all cases: key: 0 is no effect; 10 is complete control
# [1] = system: wheat (Triticum aestivum)
# Procedure, shortened: (§1)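 Response scores run from 0, meaning no effect, to 10, meaning complete control, assigned by eye relative to controls twelve to sixteen days after spraying. Treatment was both preemergence on planted seed and postemergence on plants at the 1- to 4-leaf stage.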
# [2] = system: blackgrass (Alopecurus myosuroides)
# Procedure, shortened: as §1
# [3] = system: pigweed (Amaranthus retroflexus)
# Procedure, shortened: as §1
# [4] = system: crabgrass (Digitaria sanguinalis)
# Procedure, shortened: as §1
# [5] = system: purple nutsedge (Cyperus rotundus); conditions: for Plant response rating, Nutsedge: Postemergence; for Nutsedge plant response rating: Preemergence
# Procedure, shortened: as §1
# [6] = system: cocklebur (Xanthium strumarium)
# Procedure, shortened: as §1
# corn (Zea mays) = system: corn (Zea mays)
# Procedure, shortened: as §1
# [7] = system: broadleaf signalgrass (Brachiaria decumbens)
# Procedure, shortened: as §1
# [8] = system: giant foxtail (Setaria faberii)
# Procedure, shortened: as §1
# wild oat (Avena fatua) = system: wild oat (Avena fatua)
# Procedure, shortened: as §1
# [9] = system: bedstraw (Galium aparine)
# Procedure, shortened: as §1
# [10] = system: momingglory (Ipomoea hederacea)
# Procedure, shortened: as §1
# [11] = system: sugar beet (Beta vulgaris)
# Procedure, shortened: as §1
# [12] = system: velvetleaf (Abutilon theophrasti)
# Procedure, shortened: as §1
structure (smiles),measurement,setting,value
CCc1cnc(-c2ccc(C(F)(F)F)cc2)nc1Cc1cccc(C(F)(F)F)c1 [Compound 22],"Plant response rating, Wheat","[1]; Rate 62 g/ha, Postemergence",4
same,Wheat plant response rating,"[1]; Rate 62 g/ha, Preemergence",2
same,"Plant response rating, Wheat","[1]; Rate 125 g/ha, Postemergence",4
same,Wheat plant response rating,"[1]; Rate 125 g/ha, Preemergence",2
same,"Plant response rating, Wheat","[1]; Rate 250 g/ha, Postemergence",6
same,"Plant response rating, Wheat","[1]; Rate 250 g/ha, Preemergence",4
same,"Plant response rating, Blackgrass","[2]; Rate 62 g/ha, Postemergence",5
same,Blackgrass plant response rating,"[2]; Rate 62 g/ha, Preemergence",8
same,"Plant response rating, Blackgrass","[2]; Rate 125 g/ha, Postemergence",8
same,Blackgrass plant response rating,"[2]; Rate 125 g/ha, Preemergence",9
same,"Plant response rating, Blackgrass","[2]; Rate 250 g/ha, Postemergence",9
same,"Plant response rating, Blackgrass","[2]; Rate 250 g/ha, Preemergence",9
same,"Plant response rating, Redroot pigweed","[3]; Rate 62 g/ha, Postemergence",10
same,Redroot pigweed plant response rating,"[3]; Rate 62 g/ha, Preemergence",9
same,"Plant response rating, Redroot pigweed","[3]; Rate 125 g/ha, Postemergence",10
same,Redroot pigweed plant response rating,"[3]; Rate 125 g/ha, Preemergence",10
same,"Plant response rating, Redroot pigweed","[3]; Rate 250 g/ha, Postemergence",10
same,"Plant response rating, Redroot pigweed","[3]; Rate 250 g/ha, Preemergence",10
same,"Plant response rating, Crabgrass","[4]; Rate 62 g/ha, Postemergence",9
same,Crabgrass plant response rating,"[4]; Rate 62 g/ha, Preemergence",7
same,"Plant response rating, Crabgrass","[4]; Rate 125 g/ha, Postemergence",9
same,Crabgrass plant response rating,"[4]; Rate 125 g/ha, Preemergence",10
same,"Plant response rating, Crabgrass","[4]; Rate 250 g/ha, Postemergence",9
same,"Plant response rating, Crabgrass","[4]; Rate 250 g/ha, Preemergence",10
same,"Plant response rating, Nutsedge",[5]; Rate 62 g/ha,0
same,Nutsedge plant response rating,[5]; Rate 62 g/ha,0
same,"Plant response rating, Nutsedge",[5]; Rate 125 g/ha,0
same,Nutsedge plant response rating,[5]; Rate 125 g/ha,1
same,"Plant response rating, Cocklebur","[6]; Rate 62 g/ha, Postemergence",8
same,Cocklebur plant response rating,"[6]; Rate 62 g/ha, Preemergence",1
same,"Plant response rating, Cocklebur","[6]; Rate 125 g/ha, Postemergence",8
same,Cocklebur plant response rating,"[6]; Rate 125 g/ha, Preemergence",1
same,"Plant response rating, Cocklebur","[6]; Rate 250 g/ha, Postemergence",8
same,"Plant response rating, Cocklebur","[6]; Rate 250 g/ha, Preemergence",2
same,"Plant response rating, Corn","corn (Zea mays); Rate 62 g/ha, Postemergence",3
same,Corn plant response rating,"corn (Zea mays); Rate 62 g/ha, Preemergence",0
same,"Plant response rating, Corn","corn (Zea mays); Rate 125 g/ha, Postemergence",3
same,Corn plant response rating,"corn (Zea mays); Rate 125 g/ha, Preemergence",0
same,"Plant response rating, Corn","corn (Zea mays); Rate 250 g/ha, Postemergence",4
same,"Plant response rating, Corn","corn (Zea mays); Rate 250 g/ha, Preemergence",2
same,"Plant response rating, B. signalgrass","[7]; Rate 62 g/ha, Postemergence",5
same,B. signalgrass plant response rating,"[7]; Rate 62 g/ha, Preemergence",5
same,"Plant response rating, B. signalgrass","[7]; Rate 125 g/ha, Postemergence",7
same,B. signalgrass plant response rating,"[7]; Rate 125 g/ha, Preemergence",9
same,"Plant response rating, B. signalgrass","[7]; Rate 250 g/ha, Postemergence",7
same,"Plant response rating, B. signalgrass","[7]; Rate 250 g/ha, Preemergence",9
same,"Plant response rating, Giant foxtail","[8]; Rate 62 g/ha, Postemergence",6
same,Giant foxtail plant response rating,"[8]; Rate 62 g/ha, Preemergence",9
same,"Plant response rating, Giant foxtail","[8]; Rate 125 g/ha, Postemergence",6
same,Giant foxtail plant response rating,"[8]; Rate 125 g/ha, Preemergence",10
same,"Plant response rating, Giant foxtail","[8]; Rate 250 g/ha, Postemergence",8
same,"Plant response rating, Giant foxtail","[8]; Rate 250 g/ha, Preemergence",10
same,"Plant response rating, Wild oats","wild oat (Avena fatua); Rate 62 g/ha, Postemergence",5
same,Wild oats plant response rating,"wild oat (Avena fatua); Rate 62 g/ha, Preemergence",7
same,"Plant response rating, Wild oats","wild oat (Avena fatua); Rate 125 g/ha, Postemergence",6
same,Wild oats plant response rating,"wild oat (Avena fatua); Rate 125 g/ha, Preemergence",8
same,"Plant response rating, Wild oats","wild oat (Avena fatua); Rate 250 g/ha, Postemergence",8
same,"Plant response rating, Wild oats","wild oat (Avena fatua); Rate 250 g/ha, Preemergence",9
same,Bedstraw plant response rating,"[9]; Rate 62 g/ha, Preemergence",6
same,"Plant response rating, Bedstraw","[9]; Rate 125 g/ha, Postemergence",8
same,Bedstraw plant response rating,"[9]; Rate 125 g/ha, Preemergence",7
same,"Plant response rating, Bedstraw","[9]; Rate 250 g/ha, Postemergence",8
same,"Plant response rating, Bedstraw","[9]; Rate 250 g/ha, Preemergence",7
same,"Plant response rating, Morningglory","[10]; Rate 62 g/ha, Postemergence",10
same,Morningglory plant response rating,"[10]; Rate 62 g/ha, Preemergence",3
same,"Plant response rating, Morningglory","[10]; Rate 125 g/ha, Postemergence",10
same,Morningglory plant response rating,"[10]; Rate 125 g/ha, Preemergence",10
same,"Plant response rating, Morningglory","[10]; Rate 250 g/ha, Postemergence",10
same,"Plant response rating, Morningglory","[10]; Rate 250 g/ha, Preemergence",10
same,"Plant response rating, Sugarbeets","[11]; Rate 62 g/ha, Postemergence",10
same,Sugarbeets plant response rating,"[11]; Rate 62 g/ha, Preemergence",9
same,"Plant response rating, Sugarbeets","[11]; Rate 125 g/ha, Postemergence",10
same,Sugarbeets plant response rating,"[11]; Rate 125 g/ha, Preemergence",9
same,"Plant response rating, Sugarbeets","[11]; Rate 250 g/ha, Postemergence",10
same,"Plant response rating, Sugarbeets","[11]; Rate 250 g/ha, Preemergence",10
same,"Plant response rating, Velvetleaf","[12]; Rate 62 g/ha, Postemergence",8
same,Velvetleaf plant response rating,"[12]; Rate 62 g/ha, Preemergence",8
same,"Plant response rating, Velvetleaf","[12]; Rate 125 g/ha, Postemergence",8
same,Velvetleaf plant response rating,"[12]; Rate 125 g/ha, Preemergence",8
same,"Plant response rating, Velvetleaf","[12]; Rate 250 g/ha, Postemergence",9
same,"Plant response rating, Velvetleaf","[12]; Rate 250 g/ha, Preemergence",8

# Reference: patent US6525001B1, “Substituted pyrimidine and pyridine herbicides” (Mid-American Commercialization Corporation, priority 1997, dated 2003)
